In brackets after ≈: the same amount, converted by molar mass. Activity calls are given as the source filed them. The rule behind the calls is not given here.
Assays:
[1] = Cytotoxicity against human CEM-TART cells after 72 hrs by MTT assay; type: cell-based
[2] = tested on: Mycobacterium tuberculosis; experiment: Antimycobacterial activity against Mycobacterium tuberculosis H37Ra after 4 days by MTT assay; type: functional; conditions: 96 h
[3] = tested on: Mycobacterium tuberculosis; experiment: Antimycobacterial activity against Mycobacterium tuberculosis H37Rv by MTT assay after 4 days by MTT assay; type: functional; conditions: 96 h
[4] = tested on: Mycobacterium tuberculosis; experiment: Antimycobacterial activity against Mycobacterium tuberculosis H37Rv at 100 ug/ml after 4 days by MTT assay; type: functional; conditions: 96 h, read-out: GI
[5] = tested on: Mycobacterium tuberculosis; experiment: Antimycobacterial activity against Mycobacterium tuberculosis H37Ra at 200 ug/ml after 4 days by MTT assay; type: functional, organism-based

In the case of `COc1cccc2c1C(=O)c1c(O)c3c(c(O)c1C2=O)C[C@@](O)(C(=O)CO)C[C@@H]3O[C@H]1C[C@H](N)[C@H](O)[C@H](C)O1` [DOXORUBICIN], the EC50 [1] is reported as 0.0044 µg/mL (≈ 0.0081 µM).

With `CO[C@H]1/C=C/O[C@@]2(C)Oc3c(C)c(O)c4c(O)c(c(/C=N/N5CCN(C)CC5)c(O)c4c3C2=O)NC(=O)/C(C)=C\C=C\[C@H](C)[C@H](O)[C@@H](C)[C@@H](O)[C@@H](C)[C@H](OC(C)=O)[C@@H]1C` [RIFAMPIN] the MIC [2] was 0.0025 µg/mL (≈ 0.00304 µM) and the MIC [3] was 0.0025 µg/mL (≈ 0.00304 µM).

For `CC(C)=CCC/C(C)=C/CC/C(C)=C/CC/C=C(\C)CC/C=C(\C)CCC=C(C)C` [SQUALENE], the inhibition of growth at 100 µg/mL [4] was 99%, the Activity [5] was “inactive” and the MIC [3] was 100 µg/mL (≈ 243 µM).

With `C/C(=C\CC/C(C)=C/CC/C=C(\C)CC/C=C(\C)CCC=C(CO)CO)CCC=C(CO)CO` [TETRAHYDROXYSQUALENE] the EC50 [1] was 27.5 µg/mL (≈ 57.9 µM) and the MIC [2] was 10 µg/mL (≈ 21.1 µM).
